Measurements as given in publication PMC10281575, “PfCRT mutations conferring piperaquine resistance in falciparum malaria shape the kinetics of quinoline drug binding and transport” (PLOS Pathogens, 2023).
Several values for one entry are separate records, joined by “and”; a condition that tells them apart may be missing. Equal entries are not always repeated.

Columns and labels:
[1] = biological target: T1, PfCRT^HB3 (Plasmodium falciparum, UniProt Q8IBZ9); assay: Radiolabeled drug uptake in X. laevis oocytes expressing wild type PfCRT^HB3; type: cell-based; conditions: pH 6.0
T1 construct: expressed in transfected cells; host or cells: Xenopus laevis oocytes injected with in vitro transcribed RNA (pSP64T)
Description: (§1) Adult female X. laevis frogs (purchased from NASCO) were anesthetized by submersion in a solution of 0.3% (w/v) 3-amino benzoate methanesulfonate for 15 min. Sections of the ovary were surgically removed and placed in Ca^2+-free ND96 buffer supplemented with 0.1% collagenase D (w/v; Roche), 0.5% BSA (w/v) and 9 mM Na2HPO4 at 18°C for 14–16 h while gently shaking. The oocytes were then washed several times with ND96 buffer (5 mM HEPES, pH 7.5, 96 mM NaCl, 2 mM KCl, 1.8 mM CaCl2, 1 mM MgCl2), supplemented with […] gentamycin. Healthy-looking stage V-VI oocytes were manually selected and randomly grouped for injection. A codon-optimized coding sequence of PfCRT was subcloned into the pSP64T expression vector and subsequently linearized using the restriction endonuclease BamHI or SalI (New England Biolabs GmbH). RNA for injection was transcribed in vitro using the mMESSAGE mMACHINE SP6 Transcription kit (Ambion), diluted with nuclease-free water to a final concentration of 0.6 μg/μL and stored at -80°C. RNA was injected using precision-bore glass capillary tubes (3.5-inch glass capillaries; Drummond Scientific Co.), which were pulled on a vertical puller (P-87 Flaming/Brown micropipette puller, Sutter Instrument Co.) and graduated. The micropipettes were connected to a microinjector (Nanoject II Auto-Nanoliter Injector, Drummond Scientific Co.). Injection was conducted under stereomicroscopic control. 50 nL of nuclease-free water alone (control oocytes) or 50 nL of nuclease-free water containing 30 ng of RNA was injected per oocyte. Injected oocytes were kept for 72 h at 18°C in ND96 buffer with two daily buffer changes before being used for further experiments.
(§2) Drug transport assays were performed as previously described. Briefly, measurements of radiolabeled drug uptake were made over 1 h, unless otherwise specified. […] Where specified, one or more unlabeled drugs were also present at the indicated concentrations. […] The uptake assays were terminated by removing the oocytes from the reaction medium and washing them three times with 2 mL of ice-cold ND96 buffer. Each oocyte was transferred to a separate scintillation vial and lysed by the addition of 200 μL of a 5% SDS solution. The radioactivity in the sample was measured using a liquid scintillation analyser Tri-Carb 4910 TR (PerkinElmer). Water-injected oocytes were analyzed in parallel as a negative control. The buffer from each condition was measured in duplicate in parallel to each experiment to transform counts per minute into pmol of drug. Drug uptake attributable to PfCRT was determined by subtracting the background uptake from water-injected oocytes from that of PfCRT-expressing oocytes. In all cases, at least three independent experiments were performed on oocytes from different frogs, and for each condition in an experiment, measurements were made from 10 oocytes per treatment.

[2] = biological target: T2, PfCRT^Dd2_G353V (Plasmodium falciparum, UniProt Q8IBZ9, A220S/G353V/I356T/K76T/M74I/N326S/N75E/Q271E/R371I); assay: Radiolabeled drug uptake in X. laevis oocytes expressing PfCRT^Dd2_G353V; type: cell-based
T2 construct: expressed in transfected cells; host or cells: Xenopus laevis oocytes injected with in vitro transcribed RNA (pSP64T)
T2 sequence (Q8IBZ9 1-424 M74I/N75E/K76T/A220S/Q271E/N326S/G353V/I356T/R371I): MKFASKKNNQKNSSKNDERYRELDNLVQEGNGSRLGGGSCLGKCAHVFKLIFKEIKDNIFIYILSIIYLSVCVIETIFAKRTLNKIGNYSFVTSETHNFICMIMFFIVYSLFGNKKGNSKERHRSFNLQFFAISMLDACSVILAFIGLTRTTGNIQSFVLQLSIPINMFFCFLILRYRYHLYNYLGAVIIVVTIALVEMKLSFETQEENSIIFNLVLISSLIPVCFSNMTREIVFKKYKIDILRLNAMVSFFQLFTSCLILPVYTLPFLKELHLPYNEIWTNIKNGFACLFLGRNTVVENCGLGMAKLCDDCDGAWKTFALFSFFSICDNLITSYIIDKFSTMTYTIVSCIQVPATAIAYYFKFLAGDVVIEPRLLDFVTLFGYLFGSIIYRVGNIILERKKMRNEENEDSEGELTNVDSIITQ
Description: A codon-optimized coding sequence of the Dd2 isoform of PfCRT (PfCRT^Dd2) was subcloned into the pSP64T expression vector [21]. To generate the necessary mutations to introduce the amino acid substitutions H97Y, F145I, M343L or G353V into the pfcrt sequence, the overlap extension method was used. A region from the 5’-untranslated Xenopus β-globin sequence to the respective 3’ region, containing the full length pfcrt coding sequence, was amplified using the following primer pairs: for the H97Y mutation, numbers 1/4 and 2/3; for the F145I mutation, numbers 1/6 and 2/5; for the M343L mutation, numbers 1/8 and 2/7; and for the G353V mutation, numbers 1/10 and 2/9 (for primers, see S2 Table). Both PCR products were used as template for amplification of the final product using primers number 1/2. The resulting fragment was cloned into the pSP64T expression vector, and the presence of the desired mutation was confirmed by sequencing.
as §1, §2

[3] = 50 μM CQ, total uptake, one value per biological replicate
[4] = 50 μM CQ, water-injected uptake subtracted, per replicate
[5] = 50 μM PPQ, total uptake, one value per biological replicate
[6] = 50 μM PPQ, water-injected uptake subtracted, per replicate

T1 sequence (Q8IBZ9 whole entry): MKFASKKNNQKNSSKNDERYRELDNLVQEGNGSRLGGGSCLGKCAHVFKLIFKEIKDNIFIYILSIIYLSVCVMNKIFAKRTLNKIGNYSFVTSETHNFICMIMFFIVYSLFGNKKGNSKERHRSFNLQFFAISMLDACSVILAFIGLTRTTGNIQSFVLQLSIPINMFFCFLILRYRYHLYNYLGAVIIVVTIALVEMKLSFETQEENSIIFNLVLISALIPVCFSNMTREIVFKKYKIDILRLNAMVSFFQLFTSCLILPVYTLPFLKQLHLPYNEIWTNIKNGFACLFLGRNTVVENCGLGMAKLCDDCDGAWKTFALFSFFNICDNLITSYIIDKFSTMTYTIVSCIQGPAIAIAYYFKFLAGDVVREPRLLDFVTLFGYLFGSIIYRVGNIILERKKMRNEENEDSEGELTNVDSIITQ

For `CCN(CC)CCCC(C)Nc1ccnc2cc(Cl)ccc12` (stereo not drawn) [CQ, chloroquine], the “PfCRTHB3 uptake of CQ at 10 min” value [1, 3] was 3.76 pmol oocyte-1 and 2.69 pmol oocyte-1 and 4.10 pmol oocyte-1 and 2.94 pmol oocyte-1, the “PfCRTHB3 uptake of CQ at 30 min” value [1, 3] was 5.04 pmol oocyte-1 and 6.21 pmol oocyte-1 and 4.82 pmol oocyte-1 and the “PfCRTHB3 uptake of CQ at 60 min” value [1, 3] was 10.53 pmol oocyte-1 and 9.06 pmol oocyte-1 and 13.05 pmol oocyte-1 and 9.38 pmol oocyte-1. The “PfCRTHB3 uptake of CQ at 90 min” value [1, 3] was 10.44 pmol oocyte-1 and 13.59 pmol oocyte-1 and 10.43 pmol oocyte-1, the “PfCRTHB3 uptake of CQ at 120 min” value [1, 3] was 15.66 pmol oocyte-1 and 14.17 pmol oocyte-1 and 15.57 pmol oocyte-1 and the “PfCRTHB3 uptake of CQ at 180 min” value [1, 3] was 15.78 pmol oocyte-1 and 15.62 pmol oocyte-1 and 19.97 pmol oocyte-1. For the same molecule, the “PfCRTDd2_HB3-mediated CQ uptake at 60 min” value [1, 4] was 0.25 pmol oocyte-1 and -1.21 pmol oocyte-1 and 2.78 pmol oocyte-1 and -0.90 pmol oocyte-1, the “PfCRTHB3-mediated CQ uptake at 10 min” value [1, 4] was 0.87 pmol oocyte-1 and -0.20 pmol oocyte-1 and 1.21 pmol oocyte-1 and 0.05 pmol oocyte-1 and the “PfCRTHB3-mediated CQ uptake at 30 min” value [1, 4] was 1.16 pmol oocyte-1 and -0.23 pmol oocyte-1 and 0.94 pmol oocyte-1 and -0.44 pmol oocyte-1. For the same molecule, the “PfCRTHB3-mediated CQ uptake at 90 min” value [1, 4] was -0.39 pmol oocyte-1 and 2.75 pmol oocyte-1 and -0.41 pmol oocyte-1, the “PfCRTHB3-mediated CQ uptake at 120 min” value [1, 4] was 0.98 pmol oocyte-1 and -0.51 pmol oocyte-1 and 0.90 pmol oocyte-1 and the “PfCRTHB3-mediated CQ uptake at 180 min” value [1, 4] was -0.99 pmol oocyte-1 and -1.15 pmol oocyte-1 and 3.20 pmol oocyte-1. For the same molecule, the “PfCRTDd2_G353V-mediated CQ uptake at 10 µM CQ” value ([2]; 10 µM CQ, single replicates) was 0.74 pmol oocyte-1 h-1 and 0.50 pmol oocyte-1 h-1 and 0.07 pmol oocyte-1 h-1, the “PfCRTDd2_G353V-mediated CQ uptake at 50 µM CQ” value ([2]; 50 µM CQ, single replicates) was 4.74 pmol oocyte-1 h-1 and 5.01 pmol oocyte-1 h-1 and 2.88 pmol oocyte-1 h-1 and 3.92 pmol oocyte-1 h-1 and 4.76 pmol oocyte-1 h-1 and the “PfCRTDd2_G353V-mediated CQ uptake at 100 µM CQ” value ([2]; 100 µM CQ, single replicates) was 7.26 pmol oocyte-1 h-1 and 6.49 pmol oocyte-1 h-1 and 5.26 pmol oocyte-1 h-1. For the same molecule, the “PfCRTDd2_G353V-mediated CQ uptake at 300 µM CQ” value ([2]; 300 µM CQ, single replicates) was 16.30 pmol oocyte-1 h-1 and 8.52 pmol oocyte-1 h-1 and 8.09 pmol oocyte-1 h-1, the “PfCRTDd2_G353V-mediated CQ uptake at 500 µM CQ” value ([2]; 500 µM CQ, single replicates) was 17.15 pmol oocyte-1 h-1 and 14.95 pmol oocyte-1 h-1 and 14.10 pmol oocyte-1 h-1 and the “Vmax, maximal velocity of drug transport” value ([2]; Michaelis-Menten fit, 10-500 μM drug, pH 6) was 23 ± 3 pmol oocyte^-1 h^-1.

`Clc1ccc2c(N3CCN(CCCN4CCN(c5ccnc6cc(Cl)ccc56)CC4)CC3)ccnc2c1` [PPQ, piperaquine] was tested, and the “PfCRTHB3I PPQ uptake at 30 min” value [1, 5] was 72.50 pmol oocyte-1 and 74.50 pmol oocyte-1 and 59.24 pmol oocyte-1, the “PfCRTHB3 PPQ uptake at 10 min” value [1, 5] was 38.64 pmol oocyte-1 and 39.15 pmol oocyte-1 and 28.68 pmol oocyte-1 and the “PfCRTHB3 PPQ uptake at 60 min” value [1, 5] was 123.26 pmol oocyte-1 and 113.71 pmol oocyte-1 and 93.83 pmol oocyte-1. The “PfCRTHB3 PPQ uptake at 90 min” value [1, 5] was 136.75 pmol oocyte-1 and 135.43 pmol oocyte-1 and 118.84 pmol oocyte-1, the “PfCRTHB3 PPQ uptake at 120 min” value [1, 5] was 198.78 pmol oocyte-1 and 176.89 pmol oocyte-1 and 174.87 pmol oocyte-1 and the “PfCRTHB3 PPQ uptake at 180 min” value [1, 5] was 161.64 pmol oocyte-1 and 186.48 pmol oocyte-1 and 220.34 pmol oocyte-1. The “PfCRTHB3-mediated PPQ uptake at 10 min” value [1, 6] was 8.47 pmol oocyte-1 and 8.98 pmol oocyte-1 and -1.48 pmol oocyte-1, the “PfCRTHB3-mediated PPQ uptake at 30 min” value [1, 6] was 7.50 pmol oocyte-1 and 9.50 pmol oocyte-1 and -5.76 pmol oocyte-1 and the “PfCRTHB3-mediated PPQ uptake at 60 min” value [1, 6] was 17.15 pmol oocyte-1 and 7.60 pmol oocyte-1 and -12.28 pmol oocyte-1. The “PfCRTHB3-mediated PPQ uptake at 90 min” value [1, 6] was 16.35 pmol oocyte-1 and 15.03 pmol oocyte-1 and -1.56 pmol oocyte-1, the “PfCRTHB3-mediated PPQ uptake at 120 min” value [1, 6] was -20.70 pmol oocyte-1 and -22.71 pmol oocyte-1 and 1.19 pmol oocyte-1 and the “PfCRTHB3-mediated PPQ uptake at 180 min” value [1, 6] was 33.25 pmol oocyte-1 and -25.45 pmol oocyte-1 and -0.62 pmol oocyte-1. The “PfCRTDd2_G353V-mediated PPQ uptake at 10 µM PPQ” value ([2]; 10 µM PPQ, single replicates) was 5.31 pmol oocyte-1 h-1 and 5.17 pmol oocyte-1 h-1 and 3.93 pmol oocyte-1 h-1, the “PfCRTDd2_G353V-mediated PPQ uptake at 50 µM PPQ” value ([2]; 50 µM PPQ, single replicates) was 29.38 pmol oocyte-1 h-1 and 45.38 pmol oocyte-1 h-1 and 21.36 pmol oocyte-1 h-1 and 40.00 pmol oocyte-1 h-1 and 56.34 pmol oocyte-1 h-1 and 56.46 pmol oocyte-1 h-1 and 95.52 pmol oocyte-1 h-1 and 62.83 pmol oocyte-1 h-1 and the “PfCRTDd2_G353V-mediated PPQ uptake at 100 µM PPQ” value ([2]; 100 µM PPQ, single replicates) was 105.67 pmol oocyte-1 h-1 and 52.72 pmol oocyte-1 h-1 and 63.14 pmol oocyte-1 h-1. For the same molecule, the “PfCRTDd2_G353V-mediated PPQ uptake at 300 µM PPQ” value ([2]; 300 µM PPQ, single replicates) was 116.72 pmol oocyte-1 h-1 and 65.87 pmol oocyte-1 h-1 and 109.27 pmol oocyte-1 h-1, the “PfCRTDd2_G353V-mediated PPQ uptake at 500 µM PPQ” value ([2]; 500 µM PPQ, single replicates) was 126.72 pmol oocyte-1 h-1 and 99.20 pmol oocyte-1 h-1 and 126.01 pmol oocyte-1 h-1 and the Km ([2]; Michaelis-Menten fit, 10-500 μM drug, pH 6, read-out: KM, Michaelis constant) was 90 ± 20 µM.
